Test results published in US20220204437A1, “New Kaurane analogues, their preparation and therapeutically uses” (KEY PHARMA BIOMEDICAL INC., priority 2019, published 2022).

Legend:
[1] = DOX alone or DOX co-treated with the compound
[2] = tested on: Doxorubicin-induced cardiotoxicity; test: Protection against Doxorubicin-induced cardiotoxicity / cardiac dysfunctions in vivo; conditions: among the synthesized new kaurane analogues
[3] = tested on: cardiac toxicity animal induced by other drugs used for chemotherapy; test: Cardiac toxicity animal induced by other chemotherapy drugs (anthracyclines: epirubicin, daunorubicin, aclarubicin); format: in vivo; conditions: cardiac toxicity induced by anthracyclines including epirubicin
[4] = tested on: cardiac ischemia animal model by coronary ligation; test: Cardiac ischemia animal model by coronary ligation; format: in vivo; conditions: for area of infraction / cardiac contractility / number of micro-blood vessels: coronary ligation, in comparison of control; for function of failing heart due to acute coronary ligation / occurrence of arrhythmia induced by acute ischemia: in vivo
Text: This invention disclosed that compound 1 and 2 can increased the function of failing heart due to acute coronary ligation.

[5] = tested on: chronic cardiac hypertrophy and heart failure animal induced by TAC; test: Chronic cardiac hypertrophy and heart failure animal induced by TAC (Thoracic aorta constriction); format: in vivo; conditions: for interstitial collagen deposition (histo-pathology) / number of myofibroblasts (histo-pathology) / size of cardiomyocytes (histo-pathology): treated 4 weeks, in comparing to control; for cardiac contractility: treated for consecutive 4 weeks after the surgery, in comparing of control animals
Experimental: Furthermore, in an embodiment of this invention, a chronic cardiac hypertrophy and heart failure animal was induced by TAC (Thoracic aorta constriction) . The animal was treated with compound 1 and 2 for consecutive 4 weeks after the surgery.

[6] = tested on: drug induced diabetes animal model; test: Drug induced diabetes animal model with cardiomyopathy; format: in vivo; conditions: cardiomyopathy developed after 4 weeks; treatment for 2 weeks
Text: In other embodiment, this invention disclosed that in a drug induced diabetes animal model, cardiomyopathy was developed after 4 weeks. However, the cardiac inflammatory changes were diminished after treatment of compound 1 and 2 for 2 weeks.

[7] = tested on: cerebral ischemia animal model; test: Cerebral ischemia animal model; format: in vivo; conditions: in comparison of control

Structure (SMILES)	LC50 of DOX [1]	protective activity against Doxorubicin-induced cardiotoxicity [2]	effects in term of function and pathology [3]	area of infraction [4]	cardiac contractility [4]	number of micro-blood vessels [4]	function of failing heart due to acute coronary ligation [4]	occurrence of arrhythmia induced by acute ischemia [4]	interstitial collagen deposition (histo-pathology) [5]	number of myofibroblasts (histo-pathology) [5]	size of cardiomyocytes (histo-pathology) [5]	cardiac contractility [5]	cardiac inflammatory changes [6]	area of infraction [7]	movement and behavers [7]
COc1cccc2c1C(=O)c1c(O)c3c(c(O)c1C2=O)C[C@@](O)(C(=O)CO)C[C@@H]3O[C@H]1C[C@H](N)[C@H](O)[C@H](C)O1 [DOX, Doxorubicin, reference compound]	51.56 µM														
C[C@]12CC[C@@H]3C(CC[C@H]4[C@@]3(C)CCC[C@@]4(C)C(=O)O)(C1)[C@H](C(=O)O)[C@H]2O [compound 1, (4R, 4aS, 7S, 8R, 9S, 11aS, 11lbS)-8-hydroxy-4,9, 11b-trimethyltetradecahydro-6a, 9-methanocyclohepta[a]naphthalene-4,7-dicarboxylic acid]	66.62 µM	maximum protective activity	Signiant beneficial effects	reduced	significantly increased	increased	increased	reduced	reduced	reduced	significant reduction	significantly enhanced	diminished	significantly reduced	improved
C[C@]12CC[C@@H]3C(CC[C@H]4[C@@]3(C)CCC[C@@]4(C)C(=O)O)(C1)[C@H](C=O)[C@H]2O [compound 2, (4R, 4aS, 7S, 8R, 9S, 11aS, 11bS)-7-formyl-8-hydroxy-4,9, llb-trimethyltetradecahydro-6a, 9-methanocyclohepta[a]naphthalene-4-carboxylic acid]	92.61 µM	maximum protective activity	Signiant beneficial effects	reduced	significantly increased	increased	increased	reduced	reduced	reduced	significant reduction	significantly enhanced	diminished	significantly reduced	improved
C[C@]12CC[C@@H]3C(CC[C@H]4[C@@]3(C)CCC[C@@]4(C)C(=O)O)(C1)[C@H](CO)C2=O [compound 3, (4R, 4aS, 7R, 9S, 11aS, 11bS)-7-(hydroxymethyl)-4,9, 11b-trimethyl-8-oxotetradecahydro-6a, 9-methanocyclohepta[a]naphthalene-4-carboxylic acid]	74.83 µM														
